Results published in patent publication US20250268873A1, “COMBINATION OF DUAL ATM AND DNA-PK INHIBITORS AND IMMUNOTHERAPEUTIC AGENTS FOR USE IN CANCER THERAPY” (XRAD THERAPEUTICS, INC., priority 2021, published 2025).

System: TBK1
Assay: Immunoblot of TBK1 phosphorylation in HCT116 cells
Assay type: cell-based, human
Details: HCT116 p53 wild-type and p53−/− cells; 1 μM single agents, combination 0.5 or 1 micromolar each
From the text: Antibodies recognizing phosphorylated/activated ATM (S1981, #ab81292) and DNA-PKcs (S2056, #ab18192) were purchased from Abcam Biotechnology (Cambridge, MA). Antibodies to ATM (#A1106) and DNA-PKcs (#ab1832) were from Sigma and Abcam, respectively. Phospho-KAP1 (S824, #A300-767A) and KAP1 (A700-014) antibodies were from Bethyl Labs (Montgomery, TX). Phospho-TBK1 (#5483), cGAS (#15102), and pSTING (S366, #19781S) antibodies were from Cell Signaling Technology (CST) (Danvers, MA). STING (PA5-23381) antibodies were from ThermoFisher Scientific (Waltham, MA), and actin (#A5316) antibodies were from Sigma. All antibodies were diluted 1:1000 with the exception of actin which was diluted 1:3000 in 1×TBST (1×TBS-10×TBS, (Corning, 46-012-CM), 0.05% Tween-20 (P7949) Sigma and 1% BSA. Secondary antibodies used were (a) Li-Cor method-Goat anti-Rabbit (926-3221) and Goat anti-Mouse (926-68020) Li-Cor (b) ECL method: Anti-rabbit IgG, HRP-linked (#7074S), CST.
Cells were pretreated with Compound 569 at 20, 100, 500, or 1000 nM or DMSO for 30 min and then irradiated with 0 or 10 Gy (XRAD 160, Precision X Ray) as shown in FIG. 1. In FIG. 3, cells were pretreated with Compound 569 at 1 μM, ATMi (AZD0156) at 1 μM, DNA-PKi (peposertib) at 1 μM as single agents or DMSO or with ATMi and DNA-PKi in combination at 0.5 micromolar each or at 1 micromolar each for 30 min and then irradiated with 0 or 10 Gy (XRAD 160, Precision X Ray) as shown in FIG. 1. One hour after IR, cells were lysed in RIPA buffer ([…], pH 8.0, 150 mM NaCl, 0.1% SDS, 0.5% sodium deoxycholate, 1% IGEPAL® CA-630 (Sigma, 18896) for 20 min at 4° C. in the presence of protease and phosphatase inhibitor cocktails (Roche, #04693159001 & #04906837001). Cell lysates were centrifuged at 13,200 g for 10 min at 4° C. and supernatants were analyzed for protein content using BCA assay (Pierce™ BCA Protein Assay Kit, cat #23227, ThermoFisher Waltham, MA 02451) and equal amounts of protein/lane were used for subsequent immunoblot analyses. Proteins were denatured by adding NuPAGE LSD Sample Buffer [4×] […]

Structure (SMILES): CN(C)CCCOc1ccc(-c2ccc3ncc4c(c3c2)n(C2CCOCC2)c(=O)n4C)cn1 [AZD0156]
- phosphorylation of TBK1: induction of phosphorylation of TBK1

Structure (SMILES): COc1ccc([C@@H](O)c2cc(-c3ncnc4cc(N5CCOCC5)ccc34)c(F)cc2Cl)nn1 [peposertib]
- phosphorylation of TBK1: induction of phosphorylation of TBK1
